Here are results for one compound from patent US20110263664A1, “Inhibitors of PIM-1 Protein Kinases, Compositions and Methods for Treating Prostate Cancer” (MUSC FOUNDATION FOR RESEARCH DEVELOPMENT, priority 2007, published 2011).

As a reminder, the inhibition is the drop in the measured response relative to a control, in per cent.

Holding throughout (type): biochemical
One assay addresses KDR (Homo sapiens, UniProt P35968). As to the kind of experiment: Kinase selectivity, Table 5: KDR. The note with it: read-out: selectivity data (inhibition), KDR.
The target in a further assay is PKCβ2 (Homo sapiens, UniProt P05771). As to the kind of experiment: Kinase selectivity, Table 5: PKCβ2. The note with it: read-out: selectivity data (inhibition), PKCβ2.
In a further assay the target is SGK1 (Homo sapiens, UniProt O00141). Description: Kinase selectivity, Table 5: SGK1. As to conditions: read-out: selectivity data (inhibition), SGK1.
The target of another assay is PRAK (Homo sapiens, UniProt Q8IW41). As to the kind of experiment: Kinase selectivity, Table 5: PRAK. As to conditions: read-out: selectivity data (inhibition), PRAK.
The target in another assay is AKT1 (Homo sapiens, UniProt P31749). Description: Kinase selectivity, Table 5: AKT1. The note with it: read-out: selectivity data (inhibition), AKT1.
In the next assay the target is PDGFRα (Homo sapiens, UniProt P16234). As to the kind of experiment: Kinase selectivity, Table 5: PDGFRα. As to conditions: read-out: selectivity data (inhibition), PDGFRα.
For the next assay, the target named is Ikkβ (Homo sapiens, UniProt O14920). Description: Kinase selectivity, Table 5: Ikkβ. As to conditions: read-out: selectivity data (inhibition), Ikkβ.
The next assay has as its target MAPKAPK2 (Homo sapiens, UniProt P49137). Description: Kinase selectivity, Table 5: MAPKAPK2. As to conditions: read-out: selectivity data (inhibition), MAPKAPK2.
In another assay the target is ROCK2 (Homo sapiens, UniProt O75116). As to the kind of experiment: Kinase selectivity, Table 5: ROCK2. The note with it: read-out: selectivity data (inhibition), ROCK2.
The target of another assay is AKT3 (Homo sapiens, UniProt Q9Y243). Description: Kinase selectivity, Table 5: AKT3. As to conditions: read-out: selectivity data (inhibition), AKT3.
In a further assay the target is JAK2 (Homo sapiens, UniProt O60674). As to the kind of experiment: Kinase selectivity, Table 5: JAK2. As to conditions: read-out: selectivity data (inhibition), JAK2.
In another assay the target is RSK1 (Homo sapiens, UniProt Q15418). Description: Kinase selectivity, Table 5: RSK1. As to conditions: read-out: selectivity data (inhibition), RSK1.
A further assay concerns the target FLT3 (Homo sapiens, UniProt P36888). As to the kind of experiment: Kinase selectivity, Table 5: FLT3. As to conditions: read-out: selectivity data (inhibition), FLT3.
The target in the next assay is FGFR1 (Homo sapiens, UniProt P11362). Description: Kinase selectivity, Table 5: FGFR1. As to conditions: read-out: selectivity data (inhibition), FGFR1.
In another assay the target is BMX (Homo sapiens, UniProt P51813). Description: Kinase selectivity, Table 5: BMX. As to conditions: read-out: selectivity data (inhibition), BMX.
Another assay deals with PIM1 (Homo sapiens, UniProt P11309). Description: Kinase selectivity, Table 5: PIM1. As to conditions: read-out: selectivity data (inhibition), PIM1.
For another assay, the target named is PIM2 (Homo sapiens, UniProt Q9P1W9). Description: Kinase selectivity, Table 5: PIM2. As to conditions: read-out: selectivity data (inhibition), PIM2.
A further assay has as its target DYRK1α (Homo sapiens, UniProt Q13627). Description: Kinase selectivity, Table 5: DYRK1α. The note with it: read-out: selectivity data (inhibition), DYRK1α.
For another assay, the target named is JNK2 (Homo sapiens, UniProt P45984). Description: Kinase selectivity, Table 5: JNK2. The note with it: read-out: selectivity data (inhibition), JNK2.
A further assay deals with MST2 (Homo sapiens, UniProt Q13188). Description: Kinase selectivity, Table 5: MST2. The note with it: read-out: selectivity data (inhibition), MST2.
Another assay addresses AurA (Homo sapiens, UniProt O14965). Description: Kinase selectivity, Table 5: AurA. The note with it: read-out: selectivity data (inhibition), AurA.
For another assay, the target named is PKA (Homo sapiens, UniProt P17612). As to the kind of experiment: Kinase selectivity, Table 5: PKA. The note with it: read-out: selectivity data (inhibition), PKA.
For a further assay, the target named is GSK3β (Homo sapiens, UniProt P49841). Description: Kinase selectivity, Table 5: GSK3β. As to conditions: read-out: selectivity data (inhibition), GSK3β.
GSK3β, sequence (P49841 whole entry, species assumed): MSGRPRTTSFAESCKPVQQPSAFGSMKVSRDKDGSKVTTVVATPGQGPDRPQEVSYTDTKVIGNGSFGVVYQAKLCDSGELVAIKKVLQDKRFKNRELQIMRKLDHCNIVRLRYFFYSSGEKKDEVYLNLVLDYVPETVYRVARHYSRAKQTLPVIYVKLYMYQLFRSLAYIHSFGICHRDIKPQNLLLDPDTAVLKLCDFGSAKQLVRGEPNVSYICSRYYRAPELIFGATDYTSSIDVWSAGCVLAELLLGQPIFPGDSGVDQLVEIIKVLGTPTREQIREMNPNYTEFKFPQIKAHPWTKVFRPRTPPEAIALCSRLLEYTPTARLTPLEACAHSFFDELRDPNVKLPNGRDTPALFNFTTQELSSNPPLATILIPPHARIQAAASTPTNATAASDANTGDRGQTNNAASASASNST

FGFR1, sequence (P11362 22-822, species assumed): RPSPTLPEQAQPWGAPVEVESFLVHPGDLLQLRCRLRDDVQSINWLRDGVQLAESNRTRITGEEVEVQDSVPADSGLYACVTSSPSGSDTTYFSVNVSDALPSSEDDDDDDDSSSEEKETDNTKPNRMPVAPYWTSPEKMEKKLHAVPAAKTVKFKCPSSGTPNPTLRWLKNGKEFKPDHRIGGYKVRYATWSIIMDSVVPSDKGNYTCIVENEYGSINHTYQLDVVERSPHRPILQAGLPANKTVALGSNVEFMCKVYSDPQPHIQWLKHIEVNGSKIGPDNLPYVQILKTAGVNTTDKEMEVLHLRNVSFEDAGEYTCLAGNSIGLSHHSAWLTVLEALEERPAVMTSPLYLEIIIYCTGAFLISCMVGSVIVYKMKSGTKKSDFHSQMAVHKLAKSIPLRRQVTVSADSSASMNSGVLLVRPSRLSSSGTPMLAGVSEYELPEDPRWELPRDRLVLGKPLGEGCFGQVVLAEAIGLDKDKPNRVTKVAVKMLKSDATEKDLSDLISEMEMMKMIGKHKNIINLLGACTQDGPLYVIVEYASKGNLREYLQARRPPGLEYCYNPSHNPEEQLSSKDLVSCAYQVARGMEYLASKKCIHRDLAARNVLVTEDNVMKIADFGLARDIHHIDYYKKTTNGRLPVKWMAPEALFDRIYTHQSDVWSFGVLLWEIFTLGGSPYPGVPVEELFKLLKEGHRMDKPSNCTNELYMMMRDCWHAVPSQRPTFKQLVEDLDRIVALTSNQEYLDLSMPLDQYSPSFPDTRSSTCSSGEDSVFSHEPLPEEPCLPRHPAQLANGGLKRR
PDGFRα, sequence (P16234 24-1089, species assumed): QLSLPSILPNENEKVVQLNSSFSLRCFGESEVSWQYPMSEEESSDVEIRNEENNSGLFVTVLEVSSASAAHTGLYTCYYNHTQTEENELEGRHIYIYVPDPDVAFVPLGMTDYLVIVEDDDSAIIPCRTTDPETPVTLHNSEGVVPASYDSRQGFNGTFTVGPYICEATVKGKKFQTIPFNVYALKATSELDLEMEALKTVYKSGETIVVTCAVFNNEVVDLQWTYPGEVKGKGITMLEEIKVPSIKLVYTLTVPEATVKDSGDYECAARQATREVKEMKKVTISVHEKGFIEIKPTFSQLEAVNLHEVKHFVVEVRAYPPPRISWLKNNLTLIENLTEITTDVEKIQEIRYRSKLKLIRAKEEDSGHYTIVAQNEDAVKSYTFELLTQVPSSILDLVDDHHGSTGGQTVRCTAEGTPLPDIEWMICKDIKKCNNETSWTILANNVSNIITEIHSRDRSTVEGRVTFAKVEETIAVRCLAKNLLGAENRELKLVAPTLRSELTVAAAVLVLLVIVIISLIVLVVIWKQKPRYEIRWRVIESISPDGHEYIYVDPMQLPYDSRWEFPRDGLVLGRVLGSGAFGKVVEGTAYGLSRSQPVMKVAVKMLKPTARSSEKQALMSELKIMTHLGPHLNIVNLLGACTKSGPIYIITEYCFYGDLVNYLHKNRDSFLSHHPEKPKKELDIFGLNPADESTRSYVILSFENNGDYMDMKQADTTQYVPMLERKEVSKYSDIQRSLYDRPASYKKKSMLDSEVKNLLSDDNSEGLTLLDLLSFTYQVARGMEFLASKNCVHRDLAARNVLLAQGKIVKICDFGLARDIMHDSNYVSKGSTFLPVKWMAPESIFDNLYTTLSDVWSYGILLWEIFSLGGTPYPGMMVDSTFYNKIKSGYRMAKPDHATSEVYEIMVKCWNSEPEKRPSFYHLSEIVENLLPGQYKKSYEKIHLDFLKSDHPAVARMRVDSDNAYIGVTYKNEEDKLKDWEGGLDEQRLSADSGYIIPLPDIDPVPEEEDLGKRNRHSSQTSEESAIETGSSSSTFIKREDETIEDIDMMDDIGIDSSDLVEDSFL
BMX, sequence (P51813 whole entry, species assumed): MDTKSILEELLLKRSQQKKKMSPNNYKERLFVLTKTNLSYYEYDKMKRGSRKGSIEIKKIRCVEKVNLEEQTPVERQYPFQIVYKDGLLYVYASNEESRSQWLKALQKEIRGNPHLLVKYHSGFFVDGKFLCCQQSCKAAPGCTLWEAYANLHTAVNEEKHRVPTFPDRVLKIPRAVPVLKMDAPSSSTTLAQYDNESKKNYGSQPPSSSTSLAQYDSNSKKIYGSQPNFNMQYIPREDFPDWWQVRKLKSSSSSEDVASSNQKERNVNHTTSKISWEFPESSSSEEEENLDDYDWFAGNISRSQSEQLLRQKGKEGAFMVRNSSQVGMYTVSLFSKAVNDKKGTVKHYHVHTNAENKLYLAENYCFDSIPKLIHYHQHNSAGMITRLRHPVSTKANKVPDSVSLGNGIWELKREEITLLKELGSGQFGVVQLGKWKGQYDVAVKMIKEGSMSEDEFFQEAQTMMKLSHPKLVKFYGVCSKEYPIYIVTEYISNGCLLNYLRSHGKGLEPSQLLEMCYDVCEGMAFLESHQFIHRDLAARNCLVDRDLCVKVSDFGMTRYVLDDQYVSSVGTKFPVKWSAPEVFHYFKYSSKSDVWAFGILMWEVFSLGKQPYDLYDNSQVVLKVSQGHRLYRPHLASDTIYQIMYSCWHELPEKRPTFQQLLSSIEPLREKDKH
PIM1, sequence (P11309 whole entry): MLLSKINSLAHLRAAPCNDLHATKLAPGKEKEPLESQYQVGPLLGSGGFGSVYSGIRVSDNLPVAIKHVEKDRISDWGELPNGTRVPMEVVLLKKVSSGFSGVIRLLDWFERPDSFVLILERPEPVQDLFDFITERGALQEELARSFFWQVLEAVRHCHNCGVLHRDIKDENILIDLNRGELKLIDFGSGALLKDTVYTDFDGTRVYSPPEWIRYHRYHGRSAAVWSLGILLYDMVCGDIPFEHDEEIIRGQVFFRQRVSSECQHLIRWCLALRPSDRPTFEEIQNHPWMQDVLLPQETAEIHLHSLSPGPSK
FLT3, sequence (P36888 27-993, species assumed): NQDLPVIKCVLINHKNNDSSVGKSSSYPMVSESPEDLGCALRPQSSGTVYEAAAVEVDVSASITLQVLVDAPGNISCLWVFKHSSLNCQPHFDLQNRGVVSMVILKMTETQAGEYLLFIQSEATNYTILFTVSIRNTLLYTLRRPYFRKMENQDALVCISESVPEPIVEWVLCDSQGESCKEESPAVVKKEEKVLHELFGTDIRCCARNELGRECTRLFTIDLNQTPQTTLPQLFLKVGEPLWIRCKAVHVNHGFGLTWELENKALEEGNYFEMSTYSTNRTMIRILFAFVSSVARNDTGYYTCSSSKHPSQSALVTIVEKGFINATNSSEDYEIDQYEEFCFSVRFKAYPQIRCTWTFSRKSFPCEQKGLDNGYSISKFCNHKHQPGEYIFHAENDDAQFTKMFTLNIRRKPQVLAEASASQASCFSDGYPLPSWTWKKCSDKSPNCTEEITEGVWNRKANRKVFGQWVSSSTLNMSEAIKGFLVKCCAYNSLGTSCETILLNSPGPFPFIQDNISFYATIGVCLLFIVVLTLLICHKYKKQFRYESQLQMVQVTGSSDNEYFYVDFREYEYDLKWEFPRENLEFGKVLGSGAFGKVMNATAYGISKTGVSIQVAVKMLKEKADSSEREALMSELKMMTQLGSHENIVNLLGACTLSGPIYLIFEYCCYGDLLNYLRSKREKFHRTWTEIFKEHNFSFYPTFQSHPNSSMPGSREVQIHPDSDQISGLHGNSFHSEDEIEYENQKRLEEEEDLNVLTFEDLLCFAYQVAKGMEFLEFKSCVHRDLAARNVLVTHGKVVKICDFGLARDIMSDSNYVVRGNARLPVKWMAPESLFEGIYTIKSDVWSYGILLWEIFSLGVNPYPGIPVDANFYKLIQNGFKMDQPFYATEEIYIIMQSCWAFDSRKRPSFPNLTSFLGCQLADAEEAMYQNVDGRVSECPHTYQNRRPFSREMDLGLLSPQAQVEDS
JNK2, sequence (P45984 whole entry, species assumed): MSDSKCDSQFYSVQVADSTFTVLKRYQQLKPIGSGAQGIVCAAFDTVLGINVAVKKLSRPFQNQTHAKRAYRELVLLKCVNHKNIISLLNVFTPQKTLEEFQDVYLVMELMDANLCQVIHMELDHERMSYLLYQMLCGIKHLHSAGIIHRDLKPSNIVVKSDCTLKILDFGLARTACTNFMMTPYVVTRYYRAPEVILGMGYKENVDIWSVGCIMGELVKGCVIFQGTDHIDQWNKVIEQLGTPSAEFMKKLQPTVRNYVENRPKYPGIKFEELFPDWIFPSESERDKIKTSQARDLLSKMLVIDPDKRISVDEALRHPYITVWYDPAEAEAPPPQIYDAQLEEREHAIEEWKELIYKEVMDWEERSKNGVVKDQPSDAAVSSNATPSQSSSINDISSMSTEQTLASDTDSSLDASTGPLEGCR
PIM2, sequence (Q9P1W9 whole entry): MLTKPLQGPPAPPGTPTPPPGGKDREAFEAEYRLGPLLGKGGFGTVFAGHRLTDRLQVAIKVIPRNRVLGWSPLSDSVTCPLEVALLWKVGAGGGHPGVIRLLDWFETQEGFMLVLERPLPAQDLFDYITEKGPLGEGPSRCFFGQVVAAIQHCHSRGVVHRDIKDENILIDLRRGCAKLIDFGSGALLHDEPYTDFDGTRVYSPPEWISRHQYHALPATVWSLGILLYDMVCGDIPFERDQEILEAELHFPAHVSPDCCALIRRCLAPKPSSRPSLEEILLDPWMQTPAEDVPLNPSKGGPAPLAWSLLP

With `CC(C)c1ccc(C=C2SC(=O)NC2=O)cc1` [5-(4-iso-propylbenzylidene)thiazolidine-2,4-dione], the inhibition at 5 µM on KDR is -4%; at PKCβ2, -1%; on SGK1, 5%; at PRAK, 4%; on AKT1, 6%; at PDGFRα, 6%. Moreover, the inhibition at 5 µM on Ikkβ worked out at 10%; at MAPKAPK2, 5%; on ROCK2, 5%; on AKT3, 3%; at JAK2 it was 18%; on RSK1, 5%. Besides, the inhibition at 5 µM at FLT3 was 1%; on FGFR1, 1%; on BMX it was 10%; at PIM1 it was 36%; at PIM2 it was 62%; at DYRK1α it was 68%. The inhibition at 5 µM was 14% on JNK2; 1% on MST2; 4% on AurA; 3% on PKA; 3% at GSK3β.
